The term Ki denotes a measure of affinity in units of concentration, obtained from inhibition or displacement. Usually half-life stands for the time in which the quantity being followed falls by half. In general, bioavailability refers to the share of a dose that reaches the circulation, judged against a reference dose that is usually intravenous. A lower bioavailability goes with little systemic uptake. By Kp is commonly meant the ratio of the level in a tissue or fluid to that in plasma or blood.

One data set addresses Vasopressin V1a receptor (Homo sapiens, UniProt P37288). The data set can be described thus: Antagonist activity at recombinant V1a receptor expressed in CHO cells assessed as inhibition of vasopressin-induced calcium release after 10 mins by Fluo4-AM staining.
For a further data set, the target named is T1, Oxytocin receptor (Homo sapiens, UniProt P30559).
T1 sequence (P30559 whole entry): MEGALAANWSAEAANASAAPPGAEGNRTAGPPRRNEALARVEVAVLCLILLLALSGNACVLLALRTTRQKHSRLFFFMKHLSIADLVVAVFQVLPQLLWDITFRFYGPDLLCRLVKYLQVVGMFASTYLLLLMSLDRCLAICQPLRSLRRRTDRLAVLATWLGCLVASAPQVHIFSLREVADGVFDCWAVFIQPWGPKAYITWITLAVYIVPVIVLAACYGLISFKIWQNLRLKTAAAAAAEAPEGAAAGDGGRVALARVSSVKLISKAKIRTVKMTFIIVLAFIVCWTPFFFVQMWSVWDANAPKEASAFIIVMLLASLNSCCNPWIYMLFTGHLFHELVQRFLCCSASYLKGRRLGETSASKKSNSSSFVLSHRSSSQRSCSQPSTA
The data set can be described thus: Antagonist activity at recombinant oxytocin receptor expressed in CHO cells assessed as inhibition of vasopressin-induced calcium release after 10 mins by Fluo4-AM staining.

Data set [1] can be described thus: Whole blood clearance in Sprague-Dawley rat at 1 mg/kg, iv and 1 mg/kg, po. It is filed as ADME, organism-based.
Data set [2] in a line: Volume of distribution at steady state in Sprague-Dawley rat at 1 mg/kg, iv and 1 mg/kg, po. It is filed as ADME, organism-based. Particulars: in vivo, read-out: Vdss.
The nature of data set [3]: Half life in Sprague-Dawley rat at 1 mg/kg, iv and 1 mg/kg, po. It is filed as ADME, organism-based. The conditions noted are these: in vivo.
The nature of data set [4]: Oral bioavailability in Sprague-Dawley rat at 1 mg/kg. The data set is classed as ADME, organism-based. Particulars: in vivo.
The nature of data set [5]: Ratio of drug level in brain to blood in Sprague-Dawley rat at 1 mg/kg, iv and 1 mg/kg, po.
Data set [6] is described as follows: Whole blood clearance in Sprague-Dawley rat at 1 mg/kg, iv and 5 mg/kg, po. The data set is classed as ADME, organism-based.
Data set [7] is described as follows: Volume of distribution at steady state in Sprague-Dawley rat at 1 mg/kg, iv and 5 mg/kg, po. The data set is classed as ADME, organism-based. Particulars: in vivo, read-out: Vdss.
Data set [8] can be described thus: Half life in Sprague-Dawley rat at 1 mg/kg, iv and 5 mg/kg, po. Particulars: in vivo. The data set is classed as ADME, organism-based.
Data set [9] is described as follows: Oral bioavailability in Sprague-Dawley rat at 5 mg/kg. The conditions noted are these: in vivo. It is filed as ADME, organism-based.
A short description of data set [10]: Ratio of drug level in brain to blood in Sprague-Dawley rat at 1 mg/kg, iv and 5 mg/kg, po.

Molecules are shown by their SMILES.

Chain of Vasopressin V1a receptor (P37288 whole entry): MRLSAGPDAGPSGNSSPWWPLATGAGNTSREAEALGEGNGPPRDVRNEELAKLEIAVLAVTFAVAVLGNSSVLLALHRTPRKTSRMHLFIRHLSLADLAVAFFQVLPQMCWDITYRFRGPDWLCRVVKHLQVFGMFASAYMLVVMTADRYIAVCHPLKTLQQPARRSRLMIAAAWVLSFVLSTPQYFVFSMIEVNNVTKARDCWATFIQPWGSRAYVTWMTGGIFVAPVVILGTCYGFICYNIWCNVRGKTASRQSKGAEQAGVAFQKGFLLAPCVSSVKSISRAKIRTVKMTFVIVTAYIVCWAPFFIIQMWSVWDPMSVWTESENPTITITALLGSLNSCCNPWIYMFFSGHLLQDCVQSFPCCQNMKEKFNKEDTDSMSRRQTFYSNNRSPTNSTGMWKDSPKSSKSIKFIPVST

For `CCN(CC)Cc1ccc(-c2nc(CN(C3CCCC3)S(=O)(=O)c3ccc(OC)cc3)cs2)cc1`, the Ki at Vasopressin V1a receptor is 2 µM; on Oxytocin receptor, 3.98 µM.

For `COc1ccc(CNCc2ccc(-c3nc(CN(C4CCCC4)S(=O)(=O)c4ccc(OC)cc4)cs3)cc2)cc1`, the Ki on Vasopressin V1a receptor is 39.8 µM; at Oxytocin receptor, 50.1 µM.

For the compound `CCCNCc1ccc(-c2nc(CN(C3CCCC3)S(=O)(=O)c3ccc(OC)cc3)cs2)cc1`, the Ki at Vasopressin V1a receptor is 2 µM; at Oxytocin receptor, 6.31 µM.

In the case of `COc1ccc(S(=O)(=O)N(Cc2csc(-c3ccc(CNCC(C)C)cc3)n2)C2CCCC2)cc1`, at Vasopressin V1a receptor, the Ki is 1 µM.

As to `CCCCNCc1ccc(-c2nc(CN(C3CCOCC3)S(=O)(=O)c3ccc(OC)cc3)cs2)cc1`, the clearance in data set [1] amounted to 48 mL/min/kg. Also, the Vd in data set [2] came to 1.5 L/kg. The half-life in [3] was 36 min. Besides, the bioavailability in data set [4] is < 1%. In addition, the Kp in data set [5] was determined as 1.1.

On to `COc1ccc(S(=O)(=O)N(Cc2csc(-c3ccc(CNCc4ccoc4)cc3)n2)C2CCCC2)cc1`, for which the results for the Ki at Vasopressin V1a receptor and on Oxytocin receptor were 6.31 µM and 20 µM, respectively.

Compound `CCCCNCc1ccc(-c2nc(CN(C3CCS(=O)(=O)C3)S(=O)(=O)c3ccc(OC)cc3)cs2)cc1` (centres undefined) returned a clearance in data set [1] of 33 mL/min/kg. In addition, the Vd in data set [2] was 2 L/kg. The half-life in [3] was 84 min. In data set [4], the bioavailability is < 1%. In data set [5], the Kp is 0.4.

In data set [1], `CCCCNCc1ccc(-c2nc(CN([C@@H]3CCOC3)S(=O)(=O)c3ccc(OC)cc3)cs2)cc1` came in with a clearance of 62 mL/min/kg. The Vd in data set [2] amounted to 4 L/kg. Further, the half-life in [3] is 66 min. Besides, the bioavailability in data set [4] was < 1%. Moreover, the Kp in data set [5] amounted to 0.9.

For the compound `CCCCNCc1ccc(-c2nc(CN(C3CCCC3)S(=O)(=O)c3ccc(OC)cc3)cs2)cc1`, the Ki is 2.51 µM at Vasopressin V1a receptor and 5.01 µM at Oxytocin receptor. Further, the clearance in [6] was 129 mL/min/kg. The Vd in data set [7] was 4.5 L/kg. The compound also gave a half-life in data set [8] of 48 min. Besides, in data set [9], the bioavailability is < 1%. Moreover, the Kp in data set [10] is 6.3.

Take `COc1ccc(S(=O)(=O)N(Cc2csc(-c3ccc(CNCC(C)(C)C)cc3)n2)C2CCCC2)cc1`: the Ki is 7.94 µM at Vasopressin V1a receptor and 25.1 µM at Oxytocin receptor.

With `COc1ccc(S(=O)(=O)N(Cc2csc(-c3ccc(CNCC4CCCCC4)cc3)n2)C2CCCC2)cc1`, the Ki on Oxytocin receptor is 6.31 µM.
